Assays:
[1] = molecular target: Mitogen-activated protein kinase kinase kinase 13 (Homo sapiens) (UniProt O43283); conditions: Compound concentration 1000.0 nM
[2] = molecular target: Maternal embryonic leucine zipper kinase (Homo sapiens) (UniProt Q14680); conditions: Compound concentration 1000.0 nM
[3] = molecular target: Receptor tyrosine-protein kinase erbB-4 (Homo sapiens) (UniProt Q15303); conditions: Compound concentration 1000.0 nM
[4] = molecular target: Cyclin-dependent kinase 5 (Homo sapiens) (UniProt Q00535); conditions: Compound concentration 1000.0 nM
[5] = molecular target: Bone morphogenetic protein receptor type-1B (Homo sapiens) (UniProt O00238); conditions: Compound concentration 1000.0 nM
[6] = molecular target: Tyrosine-protein kinase Fyn (Homo sapiens) (UniProt P06241); conditions: Compound concentration 1000.0 nM
[7] = molecular target: Serine/threonine-protein kinase RIO1 (Homo sapiens) (UniProt Q9BRS2); conditions: Compound concentration 1000.0 nM
[8] = molecular target: Serine/threonine-protein kinase PAK 2 (Homo sapiens) (UniProt Q13177); conditions: Compound concentration 1000.0 nM
[9] = molecular target: Ephrin type-A receptor 1 (Homo sapiens) (UniProt P21709); conditions: Compound concentration 1000.0 nM
[10] = molecular target: Tyrosine-protein kinase BTK (Homo sapiens) (UniProt Q06187); conditions: Compound concentration 1000.0 nM
[11] = system: Receptor-type tyrosine-protein kinase FLT3 (Homo sapiens), P36888 [UNDEFINED MUTATION]; conditions: Compound concentration 1000.0 nM
[12] = molecular target: Wee1-like protein kinase (Homo sapiens) (UniProt P30291); conditions: Compound concentration 1000.0 nM
[13] = molecular target: Tyrosine-protein kinase receptor UFO (Homo sapiens) (UniProt P30530); conditions: Compound concentration 1000.0 nM
[14] = system: Proto-oncogene tyrosine-protein kinase receptor Ret (Homo sapiens), P07949 [V804M]; conditions: Compound concentration 1000.0 nM
[15] = molecular target: Serine/threonine-protein kinase Chk2 (Homo sapiens) (UniProt O96017); conditions: Compound concentration 1000.0 nM
[16] = molecular target: Ephrin type-B receptor 4 (Homo sapiens) (UniProt P54760); conditions: Compound concentration 1000.0 nM
[17] = molecular target: Serine/threonine-protein kinase RIO3 (Homo sapiens) (UniProt O14730); conditions: Compound concentration 1000.0 nM
[18] = molecular target: Bone morphogenetic protein receptor type-2 (Homo sapiens) (UniProt Q13873); conditions: Compound concentration 1000.0 nM
[19] = molecular target: Insulin receptor-related protein (Homo sapiens) (UniProt P14616); conditions: Compound concentration 1000.0 nM
[20] = molecular target: Myosin light chain kinase (Homo sapiens) (UniProt Q32MK0); conditions: Compound concentration 1000.0 nM
[21] = molecular target: Casein kinase I isoform delta (Homo sapiens) (UniProt P48730); conditions: Compound concentration 1000.0 nM
[22] = molecular target: Serine/threonine-protein kinase Nek3 (Homo sapiens) (UniProt P51956); conditions: Compound concentration 1000.0 nM
[23] = system: Phosphatidylinositol 4,5-bisphosphate 3-kinase catalytic subunit alpha isoform (Homo sapiens), P42336 [H1047L]; conditions: Compound concentration 1000.0 nM
[24] = system: Phosphatidylinositol 4,5-bisphosphate 3-kinase catalytic subunit alpha isoform (Homo sapiens), P42336 [M1043I]; conditions: Compound concentration 1000.0 nM
[25] = molecular target: Mitogen-activated protein kinase kinase kinase kinase 1 (Homo sapiens) (UniProt Q92918); conditions: Compound concentration 1000.0 nM
[26] = molecular target: Proto-oncogene tyrosine-protein kinase ROS (Homo sapiens) (UniProt P08922); conditions: Compound concentration 1000.0 nM
[27] = molecular target: Dual serine/threonine and tyrosine protein kinase (Homo sapiens) (UniProt Q6XUX3); conditions: Compound concentration 1000.0 nM
[28] = molecular target: Interleukin-1 receptor-associated kinase 4 (Homo sapiens) (UniProt Q9NWZ3); conditions: Compound concentration 1000.0 nM
[29] = molecular target: Platelet-derived growth factor receptor alpha (Homo sapiens) (UniProt P16234); conditions: Compound concentration 1000.0 nM
[30] = molecular target: Serine/threonine-protein kinase SIK1 (Homo sapiens) (UniProt P57059); conditions: Compound concentration 1000.0 nM
[31] = system: Serine/threonine-protein kinase B-raf (Homo sapiens), P15056 [V600E]; conditions: Compound concentration 1000.0 nM
[32] = molecular target: Ribosomal protein S6 kinase alpha-1 (Homo sapiens) (UniProt Q15418); conditions: Compound concentration 1000.0 nM
[33] = molecular target: Calcium/calmodulin-dependent protein kinase type II subunit beta (Homo sapiens) (UniProt Q13554); conditions: Compound concentration 1000.0 nM
[34] = molecular target: Dual specificity protein kinase CLK1 (Homo sapiens) (UniProt P49759); conditions: Compound concentration 1000.0 nM
[35] = molecular target: GABA-A receptor; anion channel (Rattus norvegicus) (UniProt O09028+P15431+P18506+P18508+P19969+P20236+P23574+P23576+P28471+P28473+P30191+P62813+P63079+P63138+Q91ZM7+Q9ES14); conditions: Compound concentration 10.0 uM
[36] = molecular target: 5-hydroxytryptamine receptor 1A (Homo sapiens) (UniProt P08908); conditions: Compound concentration 10.0 uM
[37] = system: Tyrosine-protein kinase ABL1 (Homo sapiens), P00519 [F317I]; conditions: Compound concentration 1000.0 nM
[38] = molecular target: Mitogen-activated protein kinase kinase kinase 6 (Homo sapiens) (UniProt O95382); conditions: Compound concentration 1000.0 nM
[39] = molecular target: Serine/threonine-protein kinase MARK2 (Homo sapiens) (UniProt Q7KZI7); conditions: Compound concentration 1000.0 nM
[40] = molecular target: Phosphatidylinositol 4-phosphate 5-kinase type-1 gamma (Homo sapiens) (UniProt O60331); conditions: Compound concentration 1000.0 nM
[41] = molecular target: Serine/threonine-protein kinase/endoribonuclease IRE1 (Homo sapiens) (UniProt O75460); conditions: Compound concentration 1000.0 nM
[42] = molecular target: Calcium/calmodulin-dependent protein kinase type II subunit alpha (Homo sapiens) (UniProt Q9UQM7); conditions: Compound concentration 1000.0 nM
[43] = molecular target: Tyrosine-protein kinase ABL2 (Homo sapiens) (UniProt P42684); conditions: Compound concentration 1000.0 nM
Chain of Tyrosine-protein kinase ABL2 (Homo sapiens) (P42684 whole entry): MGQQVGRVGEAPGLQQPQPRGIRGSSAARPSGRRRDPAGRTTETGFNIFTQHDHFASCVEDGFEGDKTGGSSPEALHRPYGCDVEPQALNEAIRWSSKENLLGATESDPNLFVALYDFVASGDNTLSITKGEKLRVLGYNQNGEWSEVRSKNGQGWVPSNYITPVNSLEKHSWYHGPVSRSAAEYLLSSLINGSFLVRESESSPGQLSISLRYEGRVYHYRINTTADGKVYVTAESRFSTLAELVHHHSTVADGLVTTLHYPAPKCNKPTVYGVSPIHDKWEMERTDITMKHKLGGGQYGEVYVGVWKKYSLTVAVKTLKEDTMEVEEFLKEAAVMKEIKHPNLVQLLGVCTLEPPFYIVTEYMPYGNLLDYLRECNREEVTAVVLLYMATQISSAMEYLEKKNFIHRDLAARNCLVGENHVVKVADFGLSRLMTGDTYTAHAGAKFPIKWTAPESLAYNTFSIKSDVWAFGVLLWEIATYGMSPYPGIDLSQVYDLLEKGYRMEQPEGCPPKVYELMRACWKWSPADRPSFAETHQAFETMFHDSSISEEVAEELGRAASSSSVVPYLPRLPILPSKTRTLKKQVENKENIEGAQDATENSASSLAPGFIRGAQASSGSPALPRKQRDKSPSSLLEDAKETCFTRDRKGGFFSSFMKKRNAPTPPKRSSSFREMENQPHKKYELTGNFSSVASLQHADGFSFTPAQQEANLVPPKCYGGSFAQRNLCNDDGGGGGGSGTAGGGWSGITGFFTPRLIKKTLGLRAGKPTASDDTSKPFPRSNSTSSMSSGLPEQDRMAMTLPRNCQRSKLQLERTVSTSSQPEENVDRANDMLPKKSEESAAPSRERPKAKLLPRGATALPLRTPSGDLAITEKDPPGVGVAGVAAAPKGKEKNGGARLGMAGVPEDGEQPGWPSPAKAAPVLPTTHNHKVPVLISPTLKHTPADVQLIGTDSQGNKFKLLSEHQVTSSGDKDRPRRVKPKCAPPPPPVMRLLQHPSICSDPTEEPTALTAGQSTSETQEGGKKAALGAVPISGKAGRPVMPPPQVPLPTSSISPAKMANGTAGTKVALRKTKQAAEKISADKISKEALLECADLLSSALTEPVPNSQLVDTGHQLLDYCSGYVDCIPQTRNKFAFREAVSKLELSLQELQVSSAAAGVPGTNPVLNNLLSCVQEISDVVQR

Chain of Serine/threonine-protein kinase/endoribonuclease IRE1 (Homo sapiens) (O75460 19-977 limits assumed): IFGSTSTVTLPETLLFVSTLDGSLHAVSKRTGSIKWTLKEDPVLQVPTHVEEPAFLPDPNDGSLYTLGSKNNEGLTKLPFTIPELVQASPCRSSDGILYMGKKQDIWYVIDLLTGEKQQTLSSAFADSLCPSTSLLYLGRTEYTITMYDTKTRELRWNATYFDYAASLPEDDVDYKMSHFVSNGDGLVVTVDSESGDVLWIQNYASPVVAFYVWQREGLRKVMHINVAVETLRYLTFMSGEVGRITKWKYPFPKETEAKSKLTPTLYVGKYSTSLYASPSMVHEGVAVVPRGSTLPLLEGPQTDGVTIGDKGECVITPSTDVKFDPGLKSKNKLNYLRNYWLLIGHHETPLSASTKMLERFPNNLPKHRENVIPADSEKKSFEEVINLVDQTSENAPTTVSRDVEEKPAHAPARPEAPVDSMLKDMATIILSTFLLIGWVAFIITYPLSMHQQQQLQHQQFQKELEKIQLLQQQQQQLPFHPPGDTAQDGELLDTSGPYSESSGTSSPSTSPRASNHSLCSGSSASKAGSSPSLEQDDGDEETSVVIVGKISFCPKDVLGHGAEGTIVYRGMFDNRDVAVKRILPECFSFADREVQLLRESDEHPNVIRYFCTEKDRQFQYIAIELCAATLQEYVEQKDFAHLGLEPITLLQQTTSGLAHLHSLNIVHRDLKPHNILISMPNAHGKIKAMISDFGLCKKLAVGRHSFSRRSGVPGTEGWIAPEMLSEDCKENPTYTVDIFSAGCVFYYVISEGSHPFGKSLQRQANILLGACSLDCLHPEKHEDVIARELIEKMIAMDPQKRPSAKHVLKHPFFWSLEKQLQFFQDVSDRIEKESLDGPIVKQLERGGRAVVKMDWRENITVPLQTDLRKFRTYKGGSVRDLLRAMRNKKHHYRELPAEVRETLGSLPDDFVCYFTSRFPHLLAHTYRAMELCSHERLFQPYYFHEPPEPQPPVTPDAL
Chain of Wee1-like protein kinase (Homo sapiens) (P30291 whole entry, looked up): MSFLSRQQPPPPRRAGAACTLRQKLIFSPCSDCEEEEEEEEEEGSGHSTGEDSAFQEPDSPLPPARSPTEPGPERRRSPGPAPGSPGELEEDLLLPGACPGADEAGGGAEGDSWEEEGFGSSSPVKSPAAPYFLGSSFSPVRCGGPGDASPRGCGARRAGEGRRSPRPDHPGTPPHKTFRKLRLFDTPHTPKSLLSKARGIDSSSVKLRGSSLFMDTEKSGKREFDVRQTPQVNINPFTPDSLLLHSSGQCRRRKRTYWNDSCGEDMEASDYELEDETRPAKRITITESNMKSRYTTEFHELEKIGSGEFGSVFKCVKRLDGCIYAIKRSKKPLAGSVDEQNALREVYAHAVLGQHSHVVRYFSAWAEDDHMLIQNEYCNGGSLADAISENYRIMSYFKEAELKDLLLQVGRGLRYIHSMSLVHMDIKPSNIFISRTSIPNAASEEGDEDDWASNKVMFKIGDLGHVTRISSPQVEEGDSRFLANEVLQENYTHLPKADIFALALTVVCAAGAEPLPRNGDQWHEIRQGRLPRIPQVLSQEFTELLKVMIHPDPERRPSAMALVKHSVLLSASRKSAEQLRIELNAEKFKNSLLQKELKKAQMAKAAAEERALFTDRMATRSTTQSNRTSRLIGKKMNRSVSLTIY
Chain of Maternal embryonic leucine zipper kinase (Homo sapiens) (Q14680 whole entry, looked up): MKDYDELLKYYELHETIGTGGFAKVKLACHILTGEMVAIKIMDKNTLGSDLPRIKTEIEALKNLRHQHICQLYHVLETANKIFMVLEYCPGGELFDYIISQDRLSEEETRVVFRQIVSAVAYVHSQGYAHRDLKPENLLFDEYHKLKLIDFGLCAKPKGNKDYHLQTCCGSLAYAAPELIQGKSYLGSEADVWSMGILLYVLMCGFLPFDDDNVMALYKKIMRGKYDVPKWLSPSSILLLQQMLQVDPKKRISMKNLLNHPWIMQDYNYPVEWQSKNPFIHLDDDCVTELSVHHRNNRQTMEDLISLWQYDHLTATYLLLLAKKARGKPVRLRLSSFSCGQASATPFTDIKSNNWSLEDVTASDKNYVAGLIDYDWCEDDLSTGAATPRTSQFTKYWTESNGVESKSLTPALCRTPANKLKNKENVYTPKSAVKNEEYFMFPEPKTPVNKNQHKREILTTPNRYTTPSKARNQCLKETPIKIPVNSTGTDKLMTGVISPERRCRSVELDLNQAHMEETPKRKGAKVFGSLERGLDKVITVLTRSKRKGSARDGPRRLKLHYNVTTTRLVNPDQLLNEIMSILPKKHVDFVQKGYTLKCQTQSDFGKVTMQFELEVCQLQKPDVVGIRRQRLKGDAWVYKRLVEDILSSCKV
Chain of Calcium/calmodulin-dependent protein kinase type II subunit alpha (Homo sapiens) (Q9UQM7 whole entry): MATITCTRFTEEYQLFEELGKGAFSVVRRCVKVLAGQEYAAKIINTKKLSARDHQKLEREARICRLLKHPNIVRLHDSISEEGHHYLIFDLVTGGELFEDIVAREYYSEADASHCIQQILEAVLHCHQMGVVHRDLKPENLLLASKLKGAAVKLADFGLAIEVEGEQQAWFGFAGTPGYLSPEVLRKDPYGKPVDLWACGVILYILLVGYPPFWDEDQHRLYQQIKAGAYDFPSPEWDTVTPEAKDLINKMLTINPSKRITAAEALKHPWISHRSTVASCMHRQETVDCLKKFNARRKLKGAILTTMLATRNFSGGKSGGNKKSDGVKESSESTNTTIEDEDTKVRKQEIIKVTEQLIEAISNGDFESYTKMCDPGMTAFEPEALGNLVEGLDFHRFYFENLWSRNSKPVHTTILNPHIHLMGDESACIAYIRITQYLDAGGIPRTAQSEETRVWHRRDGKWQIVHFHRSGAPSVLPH
Chain of Phosphatidylinositol 4,5-bisphosphate 3-kinase catalytic subunit alpha isoform (Homo sapiens), P42336 [H1047L] (P42336 whole entry H1047L, canonical isoform): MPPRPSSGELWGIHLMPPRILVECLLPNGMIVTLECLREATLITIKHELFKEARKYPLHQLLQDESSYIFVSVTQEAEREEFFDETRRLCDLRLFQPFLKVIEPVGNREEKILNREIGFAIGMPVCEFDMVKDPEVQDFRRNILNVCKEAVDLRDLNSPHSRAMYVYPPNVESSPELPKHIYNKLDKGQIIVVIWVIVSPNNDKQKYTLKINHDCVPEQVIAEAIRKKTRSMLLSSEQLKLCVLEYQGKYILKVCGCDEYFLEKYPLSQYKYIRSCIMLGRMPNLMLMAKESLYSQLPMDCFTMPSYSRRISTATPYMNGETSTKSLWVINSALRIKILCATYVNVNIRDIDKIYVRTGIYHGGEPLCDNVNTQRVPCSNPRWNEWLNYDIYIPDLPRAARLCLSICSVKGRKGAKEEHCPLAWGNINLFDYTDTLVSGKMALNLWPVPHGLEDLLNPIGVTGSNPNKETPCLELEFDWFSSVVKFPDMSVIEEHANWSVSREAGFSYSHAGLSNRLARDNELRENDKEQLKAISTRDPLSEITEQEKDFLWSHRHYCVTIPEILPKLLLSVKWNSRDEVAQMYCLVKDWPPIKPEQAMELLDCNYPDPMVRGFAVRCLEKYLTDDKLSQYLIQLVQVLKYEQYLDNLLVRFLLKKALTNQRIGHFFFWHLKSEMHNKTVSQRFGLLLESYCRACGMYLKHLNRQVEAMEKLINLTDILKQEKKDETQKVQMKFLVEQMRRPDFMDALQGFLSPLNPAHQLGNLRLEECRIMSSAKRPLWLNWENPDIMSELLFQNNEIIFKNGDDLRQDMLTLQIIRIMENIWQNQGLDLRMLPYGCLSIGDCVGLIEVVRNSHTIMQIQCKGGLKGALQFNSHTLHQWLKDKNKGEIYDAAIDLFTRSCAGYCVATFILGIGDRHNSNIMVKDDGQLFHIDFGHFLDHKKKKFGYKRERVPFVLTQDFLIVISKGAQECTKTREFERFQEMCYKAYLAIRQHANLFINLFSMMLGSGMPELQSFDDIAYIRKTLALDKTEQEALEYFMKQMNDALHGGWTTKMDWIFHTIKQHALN

CCC(=O)N[C@H]1CC[C@@H](C(=O)N(C)c2ccc(-c3nc4ccccc4o3)cc2)C1 [BI 99179]
inactive: residual activity [1] 87% | residual activity [2] 94% | residual activity [3] 100% | residual activity [4] 87% | residual activity [5] 91% | residual activity [6] 100% | residual activity [7] 99% | residual activity [8] 100% | residual activity [9] 100% | residual activity [10] 77% | residual activity [11] 91% | residual activity [12] 100% | residual activity [13] 87% | residual activity [14] 100% | residual activity [15] 100% | residual activity [16] 73% | residual activity [17] 92% | residual activity [18] 98% | residual activity [19] 100% | residual activity [20] 97% | residual activity [21] 96% | residual activity [22] 66% | residual activity [23] 78% | residual activity [24] 100% | residual activity [25] 100% | residual activity [26] 93% | residual activity [27] 87% | residual activity [28] 87% | residual activity [29] 85% | residual activity [30] 89% | residual activity [31] 96% | residual activity [32] 99% | residual activity [33] 94% | residual activity [34] 93% | inhibition [35] 23.2% | inhibition [36] 19.5% | residual activity [37] 86% | residual activity [38] 76% | residual activity [39] 100% | residual activity [40] 100% | residual activity [41] 91% | residual activity [42] 94% | residual activity [43] 100%

CCC(=O)N[C@@H]1CC[C@H](C(=O)N(C)c2ccc(-c3nc4ccccc4o3)cc2)C1 [BI 99990]
inactive: residual activity [1] 100% | residual activity [2] 100% | residual activity [3] 100% | residual activity [4] 100% | residual activity [5] 100% | residual activity [6] 85% | residual activity [7] 100% | residual activity [8] 86% | residual activity [9] 87% | residual activity [10] 87% | residual activity [11] 100% | residual activity [12] 99% | residual activity [13] 100% | residual activity [14] 100% | residual activity [15] 100% | residual activity [16] 100% | residual activity [17] 100% | residual activity [18] 100% | residual activity [19] 100% | residual activity [20] 100% | residual activity [21] 100% | residual activity [22] 73% | residual activity [23] 97% | residual activity [24] 100% | residual activity [25] 100% | residual activity [26] 100% | residual activity [27] 93% | residual activity [28] 100% | residual activity [29] 86% | residual activity [30] 95% | residual activity [31] 100% | residual activity [32] 100% | residual activity [33] 100% | residual activity [34] 100% | inhibition [35] 40.3% | inhibition [36] 8.28% | residual activity [37] 76% | residual activity [38] 75% | residual activity [39] 100% | residual activity [40] 100% | residual activity [41] 100% | residual activity [42] 100% | residual activity [43] 100%
